Each block holds one molecule with its values, some of them ahead of it.
Columns and labels:
[1] = after sulfasalazine to dogs; J. Pharm. Pharmacol., 1995 in press; cited from earlier work
[2] = Release study of cisplatin capsules with different pore number and amount of gel-forming polymer (FIGS. 1a-c, 2a-c); assay type: physicochemical
Source text: The release rate of extremely hydrophilic low-molecular weight drug such as cisplatin from the sustained-release preparation is affected by the following three factors; (1) pore number made on the water-insoluble polymer, (2) pore size and (3) amount of gel-forming material inside the preparation. From the standpoint of mechanical operation of opening many uniform pores, the pore size was fixed to be 800 μm. Under the fixed pore size condition, the effects of the pore number was at first examined and the release patterns of cisplatin from the preparations are shown in FIGS. 1a, b and c. […] The release study data are summarized with respect to the effect of the amount of gel-forming polymer and the results are shown in FIGS. 2a, b and c.
The test was performed according to the procedure of the paddle method (JPXII). A dissolution media employed were the 1st solution (JPXII, pH 1.2) and the 2nd solution (JPXII, pH 6.8). Nine hundred ml of the dissolution medium was used at 37°±0.1° C. at 100rpm. Test capsule was put into a stainless sinker. After being enclosed in the sinker, the capsule was put into 900 ml of the 1st solution maintained at 37° C. The shaft was then placed in the fluid at 37° C. and the paddle was rotated at 100 rpm. To simulate the transit from gastric to intestinal pH, samples of 1st solution were replaced one hour later with the 2nd solution. The release profile of 5-FU was estimated by measuring the appearance of the drug by HPLC method. The cisplatin concentration was estimated by analyzing for platinum by atomic absorption spectrophotometry.

[3] = Serum cisplatin concentration after oral administration to rabbits; assay type: in vivo, rabbit; settings: sustained-release preparation
Description: The effects of the pore number and the amount of gel-forming polymer on the release profiles of cisplatin was confirmed in the in vivo study after oral administration of the preparations to rabbits using a reference preparation, cisplatin solution, at 20 mg/kg. […] The absorption rate of cisplatin is so rapid that the serum peak level appears within 1 hr.
In case of preparations of which drug release mechanism is based on the intestinal pressure, drug release profiles of the preparations in Examples 4, 5, 6, 7 and 8 cannot be measured by in vitro release experiments. In addition, in the case of sustained-release preparations in Examples 9, 10 and 11, the long-acting efficiency must be confirmed in the in vivo animal study after oral administration. Therefore, in vivo pharmacokinetics study was performed using beagle dogs and rabbits. In the in vivo study, the preparations of the Examples except examples 6, 10 and 11 were administered to dogs and rabbits, respectively. […] These plasma and serum samples were immediately frozen in a deep freezer at -20° C. until analyzed.
Plasma 5ASA and 5-FU concentrations were measured by an HPLC method after extraction of the drug from the plasma sample. The serum cisplatin level was determined by analyzing for platinum by atomic absorption spectrophotometry. The plasma calcitonin level was determined by an ELISA method.

[4] = dog, po
Source text: FIG. 18. Relationship between the thickness of EC layer of intestinal pressure controlled-release capsules and plasma fluorescein Tmax after oral administration to beagle dogs.

[5] = set-up: species or system beagle dog; settings: dog, in vivo
Description: The peak time, Tmax, when the plasma 5-FU level reaches to its maximum level is used as a parameter for estimating the release time of drug in the GI tract after oral administration. […] According to the report of Anderson ([…]), for the dog, gastric emptying is 3-5 h, small intestine transit time is about 1 h and colonic transit time is 10-12 hr. On the other hand, Mizuta et al. (1989) reported that the small intestinal transit time in beagle dog is 3.0±1.4 h. Additionally, the transit of the test preparation was monitored by a direct examination of the dog intestine by abdominal incision. In this study, the delivery of these preparations to the ascending colon at 4 hr after administration was confirmed. In addition, to estimate the colon arrival time in the beagle dogs, sulfasalazine which is a pro-drug of 5ASA and is cleaved to sulfapyridine and 5ASA in the colon by azo-reductase of intestinal microflora was administered to the dogs. Sulfapyridine starts to appear in the blood circulation at 4 hr after administration and reaches to its maximum concentration at 10-12 hr (J. Pharm. Pharmacol., 1995 in press). Accordingly, colon arrival time has been estimated to be 4 hr in our beagle dogs.

[6] = system: blood total leukocyte (BTL) count; test: Pharmacodynamic study: blood total leukocyte (BTL) count after oral administration of rhG-CSF capsule to beagle dogs; assay type: in vivo, beagle dog; settings: 25 μg/kg oral, three dogs
Description: The test capsule, a preparation of Example 6, was orally administered to beagle dogs. At 30 min before drug administration, 0.6 ml of the blank blood sample was removed from the dog jugular vein. After administration, 0.1 ml of blood samples were collected at 10, 24, 36, 48, 60, 72 and 96 h. […] of the blood sample was used for blood total leukocyte (BTL) count. The BTL count was performed by microcell counter CC-180A (Sysmex, Toa Medical Electronics). The BTL count is expressed as a relative value, which is obtained by the respective control BTL count, namely the pre-dosing BTL count.

Molecule: Nc1ccc(S(=O)(=O)Nc2ccccn2)cc1 [Sulfapyridine, sulfapyridine]
- time at which sulfapyridine starts to appear in the blood circulation [1]: 4 h

Molecule: N.N.[Cl][Pt][Cl] [cisplatin]
- release rate of cisplatin, effect of pore number ([2]; gel-forming polymer 100 mg): the pore number did not affect the release rate of cisplatin any more
- effect of increase of the amount of gel-forming polymer on release ([2]; pore number 20): the effect of the increase of the amount of gel-forming polymer did not appear
- release rate of cisplatin, effect of pore number ([2]; pore number 20 to 30, gel-forming polymer 25 mg and 50 mg): the release rate of cisplatin increases
- release rate of cisplatin, effect of amount of gel-forming polymer ([2]; pore number 30 and 60, gel-forming polymer 25 mg to 50 mg): the release rate of cisplatin decreases
- prolonged effect of pore number ([2]; pore number 30 to 60, gel-forming polymer 25 mg and 50 mg): prolonged effect was not observed
- serum cisplatin levels, effect of pore number ([3]; pore number 20 to 30, carbopol 25 mg (FIG. 4)): significantly increases as the pore number increases from 20 to 30
- serum cisplatin level vs. time curves, effect of amount of gel-forming polymer ([3]; pore number 30 (FIG. 5)): there is not a significant difference

Molecule: O=C1OC2(c3ccc(O)cc3Oc3cc(O)ccc32)c2ccccc21 [fluorescein]
- capsule thickness vs. in vivo Tmax [4]: good corelationship between the capsule thickness and the in vivo Tmax

- colon arrival time [5]: 4 h
Molecule: O=C(O)c1cc(/N=N/c2ccc(S(=O)(=O)Nc3ccccn3)cc2)ccc1O [sulfasalazine]

B1: rhG-CSF: recombinant human granulocyte colony-stimulating factor, given orally as the capsule of Example 6 (protein, UniProt P09919 31-207, looked up)
Granulocyte …: TPLGPASSLPQSFLLKCLEQVRKIQGDGAALQEKLVSECATYKLCHPEELVLLGHSLGIPWAPLSSCPSQALQLAGCLSQLHSGLFLYQGLLQALEGISPELGPTLDTLQLDVADFATTIWQQMEELGMAPALQPTQGAMPAFASAFQRRAGGVLVASHLQSFLEVSYRVLRHLAQP
- BTL count relative to pre-dose level [6]: 1.3 folds of pre-dose level
- time at which BTL count starts to increase [6]: 10 h
- BTL count return to the normal level ([6]; end of the experiment): 96 h

— US5637319A, “Controlled-release preparations” (priority 1995, dated 1997)
